Calls of active or inactive are those of the source.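 The calls were made as follows: active = compounds whose fitted half-maximal concentration in the cell-protection dose series is at or below a set limit; inactive = the rest.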
System: H9c2 cardiomyocytes, 2-deoxyglucose stress, ATP luminescence, 2 h
Experiment: H9c2 cell survival under 2-deoxyglucose stress – uHTS hits, dose response (AID 588780)

Structure (SMILES) | IC50
CN(C)N(Cc1ccccc1)C(=O)C(O)(c1ccccc1)c1ccccc1 | > 79 µM (inactive)
O=C(CCc1nc2ccccc2c(=O)[nH]1)N1CCCc2ccccc21 | > 79 µM (inactive)
CCOc1cc(-c2cc(-c3ccc(N)cc3)nc(N)c2C#N)ccc1O | 12.3 µM
CC(OC(=O)CCc1nc2ccccc2c(=O)[nH]1)C(=O)NCc1ccc2c(c1)OCO2 (stereo not drawn) | > 79 µM (inactive)
CCN(CCO)c1ncnc2c1sc1nc(C(C)C)c3c(c12)CC(C)(C)OC3 | > 79 µM (inactive)
O=C(COC(=O)Cn1[nH]c(=O)c2ccccc2c1=O)Nc1c(Cl)cccc1C(F)(F)F | > 79 µM (inactive)
O=C(NC1CCCCC1)C(c1ccc2ncccc2c1)N(Cc1ccccc1)C(=O)c1ccc2c(c1)OCCO2 (stereo not drawn) | 32 µM (inactive)
COc1ccc(-c2csc(/C(C#N)=C(\O)CSc3nccn3C)n2)cc1OC | > 79 µM (inactive)
CCOC(=O)CSc1nc2ccccc2c(=O)[nH]1 | > 79 µM (inactive)
COc1cc(C(=O)NCCCNc2nc3cc(C)cc(C)c3cc2C#N)cc(OC)c1OC | 45.6 µM (inactive)
Cc1ccc(N(CCC#N)C(=O)CSc2nc3ccccc3c(=O)[nH]2)cc1 | > 79 µM (inactive)
O=C(Cc1n[nH]c(=O)c2ccccc12)NCc1ccccn1 | > 79 µM (inactive)
COc1cc(Nc2nc3ccccc3n3nnnc23)cc(OC)c1OC | > 79 µM (inactive)
Cn1c2ccc(F)cc2c2nnc(NN)nc21 | > 79 µM (inactive)
COc1cc(OC)cc(C(=O)NNC(=O)CCc2nc3ccccc3c(=O)[nH]2)c1 | > 79 µM (inactive)
CS(=O)(=O)c1ccc(-c2cnc3c(NC=O)cc(-c4ccsc4)cn23)cc1 | > 79 µM (inactive)
CC1Nc2ncnc(N3CCN(c4ccccc4)CC3)c2N(Cc2ccc(Br)cc2)C1=O (stereo not drawn) | > 79 µM (inactive)
Cc1cc(NC(=O)c2cccs2)cc(-c2nc3ncccc3o2)c1O | > 79 µM (inactive)
CN(CC(=O)Nc1cccc(F)c1)C(=O)Cc1n[nH]c(=O)c2ccccc12 | > 79 µM (inactive)
Cc1c(N=Cc2cc(Br)cc(Br)c2O)cccc1C(=O)O | > 79 µM (inactive)
COc1ccc(NC(=S)N(Cc2cccnc2)Cc2cc3cc(OC)c(OC)cc3[nH]c2=O)cc1 | > 79 µM (inactive)
O=C(NCc1ccco1)c1cc(-c2cccnc2)nc2ccc(Cl)cc12 | > 79 µM (inactive)
O=c1c2ccccc2nc(-c2ccc(Cl)c(Cl)c2)n1O | 8.16 µM
Cc1ccc(-c2nn3c(C)nnc3c3ccccc23)cc1S(=O)(=O)NC(C)c1ccccc1 (stereo not drawn) | > 79 µM (inactive)

Structure (SMILES) | IC50
Cc1cc(-n2c(C)cc(C(=O)COc3ccc4ccc(=O)oc4c3)c2C)no1 | > 79 µM (inactive)
CS/C(=N\S(=O)(=O)c1ccccc1)c1ccccc1 | 41.3 µM (inactive)
Cc1c(O)ccc2c(-c3ccccc3)cc(=O)oc12 | 24.5 µM
O=c1[nH]c2cc([N+](=O)[O-])ccc2c2ccccc12 | > 79 µM (inactive)
COc1cc(-c2cc(NC=O)c3ncc(-c4ccccc4)n3c2)cc(OC)c1OC | > 79 µM (inactive)
O=c1cc(-c2ccncc2)oc2ccccc12 | > 79 µM (inactive)
CCOC(=O)c1cnc2ccc(C(=O)OC)cc2c1NCCc1ccc(OC)c(OC)c1 | > 79 µM (inactive)
COc1ccc(C(=O)COC(=O)Cn2[nH]c(=O)c3ccccc3c2=O)c(OC)c1 | > 79 µM (inactive)
COc1cc(-c2nnc(-c3cc(OC)c(OC)c(OC)c3)o2)cc(OC)c1OC | > 79 µM (inactive)
O=C(CNC(=O)c1cccc(F)c1)N/N=C/c1cc(Br)ccc1OC(=O)/C=C/c1ccco1 | > 79 µM (inactive)
COc1ccc2cc3cc(C(=O)Nc4cc(OC)c(OC)c(OC)c4)oc3nc2c1 | 27.5 µM
CNc1ccccc(C(=O)/C=C/c2ccccc2OC)c1=O | > 79 µM (inactive)
CCOC(=O)C1=c2/c(=C/c3ccncc3)c(N)c(C(=O)OC)n2C(=O)C(c2ccncc2)S1 (stereo not drawn) | > 79 µM (inactive)
COc1cccc(NC(=O)NC2(C(F)(F)F)Oc3ccccc3O2)c1 | 16.9 µM
Cc1cc(C)cc(N(CCC#N)C(=O)COC(=O)Cn2[nH]c(=O)c3ccccc3c2=O)c1 | > 79 µM (inactive)
Cc1nn(-c2ccccc2)c(N2CCCC2)c1/C=N/NC(=O)c1cc(-c2ccccn2)nc2ccccc12 | > 79 µM (inactive)
O=C(CN1CCN(S(=O)(=O)c2cc(Cl)ccc2Cl)CC1)c1ccc(O)c(O)c1 | > 79 µM (inactive)
NC(=O)C1=C(c2ccccc2)c2ccccc2C1=O | > 79 µM (inactive)
Cc1cc(C)nc(SCc2ccc(C(=O)N/N=C/c3ccccn3)cc2)n1 | > 79 µM (inactive)
COc1cc(C(=O)N/N=C/c2sc(N3CCOCC3)nc2-c2ccccc2)cc(OC)c1OC | 25.8 µM
COc1ccc(-c2ccc3c(c2)S(=O)(=O)c2cccc(C(=O)NC[C@@H]4CCCO4)c2C3=O)cc1OC | 12.8 µM
CN(C(=O)CCc1nc2ccccc2c(=O)[nH]1)C1CCS(=O)(=O)C1 (stereo not drawn) | > 79 µM (inactive)
COC(=O)c1ccc(N)c(N=CC2=C(O)CC(C)(C)CC2=O)c1 | 10.8 µM
N#Cc1c(-c2ccco2)cc(-c2ccccn2)nc1N | 22.7 µM

Structure (SMILES) | IC50
COc1cccc(NC(=O)CN(C)C(=O)CCCc2nc3ccccc3c(=O)[nH]2)c1 | > 79 µM (inactive)
CCOC(=O)c1cc(-c2nnc(-c3cc(OC)c(OC)c(OC)c3)o2)c(C)nc1C | > 79 µM (inactive)
COc1ccccc1NS(=O)(=O)c1cccc(C(=O)N/N=C/c2c(CO)cnc(C)c2O)c1 | 31.8 µM (inactive)
COc1c(C)cc(Br)cc1C(=O)Nc1cccc(-c2nc3ncccc3o2)c1 | > 79 µM (inactive)
CCOC(=O)c1ccc(-c2ccc(C3Nc4ccccc4C(=O)N3O)o2)cc1 (stereo not drawn) | 20.4 µM
COc1cc(-c2cc(NC(C)=O)c3ncc(-c4ccc(F)cc4)n3c2)cc(OC)c1OC | > 79 µM (inactive)
O=C(COC(=O)Cc1n[nH]c(=O)c2ccccc12)NNC(=O)c1ccc(Cl)cc1 | > 79 µM (inactive)
COC(=O)c1ccc(CSc2ccc3nnc(-c4cccc(F)c4)n3n2)o1 | 27.4 µM
CCOC(=O)c1nn(-c2cccc(OC)c2)c2nc(Nc3ccccc3)cc(=O)n12 | > 79 µM (inactive)
O=c1[nH]nc(-c2ccc(NCCO)c([N+](=O)[O-])c2)c2ccccc12 | > 79 µM (inactive)
CC1(C)CC2C1CCC1(O)CC2(C)CCC1N(O)c1ccc(C(=O)NCCO)cn1 (stereo not drawn) | 28.5 µM
COc1ccc(-c2csc(NC(=O)CCn3cnc4ccccc4c3=O)n2)cc1OC | > 79 µM (inactive)
O=C(N/N=C/c1ccccn1)c1ccc(NC(=O)c2cccc([N+](=O)[O-])c2)cc1 | 11.5 µM
O=C(NCCN1CCOCC1)c1cnn2c(-c3ccccc3)cc(-c3ccccc3)nc12 | 18.5 µM
S=C(Nc1ccc(N2CCOCC2)cc1)Nc1ccc2nc(-c3ccco3)c(-c3ccco3)nc2c1 | > 79 µM (inactive)
O=C(C[C@H]1C/C=C\CC[C@H](Cc2ccc(F)cc2)C(=O)O[C@@H](c2ccccc2)CNC1=O)N[C@H](CO)Cc1ccccc1 | > 79 µM (inactive)
C=CCOC(=O)C1=C[C@H](c2cn(C(C)=O)c3ccccc23)C[C@H](OCc2ccc(CO)cc2)O1 | 17.9 µM
COc1cc(OC)c2ccc(=O)oc2c1C(CC(=O)N1CCN(c2ccccc2)CC1)c1ccc2c(c1)OCO2 (stereo not drawn) | > 79 µM (inactive)
NC(=O)c1nsc(C(=O)N(c2ccccc2)C(C(=O)NC2CCCC2)c2ccc3ncccc3c2)c1N (stereo not drawn) | > 79 µM (inactive)
COc1cc2oc3cc(C#Cc4ccc(N)cc4)ccc3c(=O)c2cc1OC | > 79 µM (inactive)
COC(=O)C1=C(C)N(CCc2ccc(OC)cc2)C(=O)C1 | 39.4 µM (inactive)
CCc1ccc(NC(=O)CSc2ccc(-c3ccccn3)nn2)cc1 | > 79 µM (inactive)
COCCOC(=O)N/C=C\c1nc2ccccc2c(=O)[nH]1 | 26.7 µM
CN1CCC(N(C)C(=O)CCc2nc3ccccc3c(=O)[nH]2)CC1 | > 79 µM (inactive)

Structure (SMILES) | IC50
CC(=O)NC(CCc1ccc(Cl)c(Cl)c1)c1cccc(O)c(=O)c1 (stereo not drawn) | > 79 µM (inactive)
COc1ccc(N(CC(=O)NCCSc2ccccc2)S(=O)(=O)c2ccccc2)c(OC)c1 | 12.3 µM
COc1ccc(CCn2c(=N)c(C(=O)NCC3CCCO3)cc3c(=O)n4cccc(C)c4nc32)cc1OC (stereo not drawn) | 58 µM (inactive)
O=C(COC(=O)c1ccc([N+](=O)[O-])s1)Nc1ccc(Cl)cn1 | > 79 µM (inactive)
O=C(Cn1[nH]c(=O)c2ccccc2c1=O)N1CCN(S(=O)(=O)c2ccc(Cl)cc2)CC1 | > 79 µM (inactive)
O=C(c1ccoc1)N1CCN(c2cc(-c3ccncc3)nc3cc(-c4cccc(Cl)c4)nn23)CC1 | > 79 µM (inactive)
COc1ccc(/C=N/NC(=O)c2ccc(COc3cccc4cccnc34)cc2)cc1OC | > 79 µM (inactive)
COc1cccc(-c2cnc3c(NC=O)cc(-c4cc(OC)c(OC)c(OC)c4)cn23)c1 | > 79 µM (inactive)
CCOc1ccccc1NC(=O)c1oc2ccccc2c1NC(=O)C1CCCO1 (stereo not drawn) | 10.6 µM
NC(=O)c1nsc(C(=O)N(c2ccccc2)C(C(=O)NCc2ccc(F)cc2)c2ccc(O)cc2)c1N (stereo not drawn) | > 79 µM (inactive)
COc1cc(C(=O)Nc2cc3c(cc2N2CCCCC2)n(C)c(=O)n3C)cc(OC)c1OC | 25.4 µM
CC(C)(C)OC(=O)N1CCC(NC(=O)c2nc[nH]c2C(=O)NCC(=O)OCc2ccccc2)CC1 | > 79 µM (inactive)
Cc1ccc2sc(NNC(=O)c3ccc4c(c3)OCCO4)nc2c1C | > 79 µM (inactive)
CCN(CC)C(=O)c1[nH]cnc1C(=O)NCC(=O)OCc1ccccc1 | > 79 µM (inactive)
CCCc1cc(N2CCN(C(=O)c3ccco3)CC2)n2c(nc3ccccc32)c1C#N | 21.4 µM
CCCCCCn1cnc2c(c1=O)c1nc3ccccc3nc1n2/N=C/c1ccco1 | > 79 µM (inactive)
Cc1nc(N2CCN(c3ccccn3)CC2)c2c(C)c(C(=O)Nc3ccc(F)cc3)sc2n1 | > 79 µM (inactive)
COc1ccnc(Oc2ccccc2)c1C(=O)N/C=N/OCc1ccc(F)cc1Cl | > 79 µM (inactive)
COc1ccc(C(=O)NNC(=O)CCc2nc3ccccc3c(=O)[nH]2)cc1 | > 79 µM (inactive)
O=C(N/N=C/c1ccc(-c2cccc([N+](=O)[O-])c2)o1)c1ccc([N+](=O)[O-])cc1 | > 79 µM (inactive)
COc1ccc(-c2cc3nc(-c4ccccc4)cc(N4CCN(C(C)=O)CC4)n3n2)cc1 | 12 µM
